Data set [1] in a line: Cell viability of TZM-bl cells (PrestoBlue). The following applies: human. The data set is classed as cell-based.
Data set [2] deals with Tat-mediated LTR transcription. Briefly: Dual-reporter assay, F-Luc (Tat-mediated LTR transcription) in bl-DTR cells. It is filed as cell-based, HIV-1. Particulars: Human immunodeficiency virus 1, 24 h, read-out: IC50 of F-Luc (Tat). The method, boiled down: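 bl-DTR cells (TZM-bl with Dox-inducible Flag-Tat86 and R-Luc cassettes; 1 × 10^4) were pretreated with twofold compound dilutions, then induced with 50 ng/mL doxycycline. After 24 h, firefly luciferase (Tat-driven LTR) and Renilla luciferase (general expression) were read by dual-luciferase assay.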

Data set [3] concerns HIV-1NL4-3. In words: HIV-1 infectivity in TZM-bl cells (F-Luc). It is filed as cell-based.
Data set [4] concerns HIV-1NL4-3. Briefly: Time-of-addition assay in TZM-bl cells. It is filed as cell-based. Particulars: HIV-1NL4-3 MOI 1, 9 and 13 1.5 μM, T-20 1 µM, triptolide 5 nM, ARVs 1 µM, F-Luc at 54 h.
Where [5] appears, read: Human immunodeficiency virus 1, TZM-bl, 48 h, Table S1, WT virus, TZM-bl, fivefold serial dilutions, MOI 1, 48 h, read-out: EC50.
The mark [6] stands for this setting: Human immunodeficiency virus 1, TZM-bl, Table S1, WT virus, TZM-bl, read-out: EC50.

The values below come from paper PMC11459959, “Discovery of new acetamide derivatives of 5-indole-1,3,4-oxadiazol-2-thiol as inhibitors of HIV-1 Tat-mediated viral transcription” (Antimicrobial Agents and Chemotherapy, 2024).

Where two headings read alike, the source gives them in different places.

For orientation: CC50 means the concentration at which the toxic effect on the cells reaches its halfway point. Usually IC50 stands for the midpoint of a concentration-inhibition curve. As usually defined, the EC50 is the concentration needed to bring the measured effect to its halfway point. In turn, `Cc1[nH]c2ccc(-c3nnc(SCC(=O)N4CCCC4)o3)cc2c1C` [Compound 13, 2-((5-(2,3-Dimethyl-1H-indol-5-yl)-1,3,4-oxadiazol-2-yl)thio)-1-(pyrrolidin-1-yl)ethan-1-one] yielded a CC50 at 48 h in data set [1] of 47.1 ± 7.72 µM. The IC50 in data set [2] stood at 0.3 ± 0.03 µM. In addition, the concentration for a half-maximal effect (EC50) with HIV-1NL4-3 [3] (Human immunodeficiency virus 1, TZM-bl, 48 h, TZM-bl cells infected with HIV-1NL4-3 at MOI 1, 48 h, F-Luc, mean ± SD) came to 0.18 ± 0.05 µM; with HIV-1NL4-3 [3] (setting [5]) it was 0.2 ± 0.02 µM; in the data set on HIV-1NL4-3 [3] (TZM-bl cells infected with HIV-1NL4-3 at MOI 1, 48 h, F-Luc, mean ± SD, read-out: EC50), 0.24 ± 0.03 µM. Besides, the “SI (CC50/EC50)” value with HIV-1NL4-3 [3] (TZM-bl cells) is given as 196.33. Further, the “time of administration after infection at which effectiveness began to decrease / was lost” value (shortened to “time of administration … to decrease / was lost”) in the data set with HIV-1NL4-3 [4] amounted to 24 h.

For `O=C1Nc2ccc(Cl)cc2[C@@](C#CC2CC2)(C(F)(F)F)O1` [EFV, efavirenz, reference compound], the EC50 with HIV-1NL4-3 [3] (setting [6]) was less than 0.001 µM. The “time of administration … to decrease / was lost” value in the data set on HIV-1NL4-3 [4] is recorded as 8 h.

Consider `C[C@@H]1CCO[C@H]2Cn3cc(C(=O)NCc4ccc(F)cc4F)c(=O)c(O)c3C(=O)N12` [DTG, dolutegravir, reference compound], for which the EC50 in the data set with HIV-1NL4-3 [3] (setting [6]) is 0.001 µM. The “time of administration … to decrease / was lost” value in the data set with HIV-1NL4-3 [4] came to 10 h.

As usually defined, the EC90 is the concentration at which the effect reaches the 90% level. In the case of `Cc1[nH]c2ccc(-c3nnc(SCC(=O)N4CCCCC4)o3)cc2c1C` [Compound 9, 2-((5-(2,3-Dimethyl-1H-indol-5-yl)-1,3,4-oxadiazol-2-yl)thio)-1-(piperidin-1-yl)ethan-1-one], the cytotoxic concentration (CC50) at 48 h in data set [1] came to 63.2 ± 5.94 µM. The 50% inhibitory concentration (IC50) in data set [2] worked out at 0.14 µM. The EC50 stood at 0.17 ± 0.02 µM in the data set with HIV-1NL4-3 [3] (Human immunodeficiency virus 1, TZM-bl, 48 h, TZM-bl cells infected with HIV-1NL4-3 at MOI 1, 48 h, F-Luc, mean ± SD, read-out: EC50) and 0.13 ± 0.02 µM in the data set with HIV-1NL4-3 [3] (setting [5]). In addition, the EC90 in the data set on HIV-1NL4-3 [3] (Human immunodeficiency virus 1, TZM-bl cells, read-out: approximate EC90) is roughly 1.5 µM. In addition, the “SI (CC50/EC50)” value in the data set with HIV-1NL4-3 [3] (TZM-bl cells) was determined as 371.76. In addition, the “time of administration … to decrease / was lost” value in the data set with HIV-1NL4-3 [4] came to 24 h.

For the compound `CC(C)[C@]12O[C@H]1[C@@H]1O[C@]13[C@]1(O[C@H]1C[C@H]1C4=C(CC[C@@]13C)C(=O)OC4)[C@@H]2O` [triptolide, reference compound], the CC50 at 48 h in data set [1] (TZM-bl cells, absence of HIV-1 infection, mean ± SD, read-out: CC50) turned out to be 0.02 µM. For the same compound, the IC50 in data set [2] came out at 0.00082 ± 2e-05 µM. For the same compound, the EC50 with HIV-1NL4-3 [3] (Human immunodeficiency virus 1, TZM-bl, 48 h, TZM-bl cells infected with HIV-1NL4-3 at MOI 1, 48 h, read-out: EC50) was found to be 0.00038 ± 7e-05 µM. Further, the “SI (CC50/EC50)” value in the data set on HIV-1NL4-3 [3] (TZM-bl cells) was found to be 52.63. Further, in the data set on HIV-1NL4-3 [4], the “time of administration … to decrease / was lost” value is given as 24 h.
